Results reported in patent US20140142177A1, “TOPICAL ORGANIC ACID SALT COMPOSITIONS SUITABLE FOR TREATING INFECTIONS” (priority 2009, published 2014).

System: T. rubrum
Assay: Demonstration of synergistic activity, CLSI Reference Method 38-A2, growth at combined dilutions
Type: cell-based, Trichophyton rubrum
Set-up: key to growth of T. rubrum: N=negative growth; P=positive growth
Settings: for concentration at which negative growth was shown, individually: T. rubrum, tested individually
Procedure: This method is the gold standard used in measuring the antifungal susceptibility of filamentous fungi that cause invasive infections. Fungal colonies are grown on potato glucose agar (PGA). One colony is picked and grown in Sabouraud glucose broth (SGB) at 24° C. for 3 days in the presence of test compound. Microdilution trays are incubated at 24° C., and are read after 5 days of culture. Turbidity in the microdilution wells is scored with the aid of a reading mirror and compared with that of the growth control. A numerical score from 0 to 4 is given to each well using the following scale: 0=optically clear or absence of growth, 1=slight growth (25% of growth control), 2=prominent reduction in growth (50% of growth control), 3=slight reduction in growth (75% of growth control), 4=no reduction in growth.

SMILES: CCC(=O)[O-].CCC(=O)[O-].[Zn+2] [Formulation F9, zinc propionate]
- growth of T. rubrum (F9 0.004X alone): P 0.004X
- growth of T. rubrum (F9 0.007X alone): P 0.007X
- growth of T. rubrum (F9 0.015X alone): P 0.015X
- growth of T. rubrum (F9 0.03X alone): N 0.03X
- growth of T. rubrum (F9 0.06X alone): N 0.06X
- growth of T. rubrum (F9 0.125X alone): N 0.125X
- growth of T. rubrum (F9 0.25X alone): N 0.25X
- concentration at which negative growth was shown, individually: 0.03 times the initial concentration

SMILES: O=C[O-].[Na+] [Formulation F12, sodium formate]
- growth of T. rubrum (F12 0.004X alone): P 0.004X
- growth of T. rubrum (F12 0.007X alone): P 0.007X
- growth of T. rubrum (F12 0.015X alone): P 0.015X
- growth of T. rubrum (F12 0.03X alone): P 0.03X
- growth of T. rubrum (F12 0.06X alone): N 0.06X
- growth of T. rubrum (F12 0.125X alone): N 0.125X
- growth of T. rubrum (F12 0.25X alone): N 0.25X
- concentration at which negative growth was shown, individually: 0.06 times the initial concentration

SMILES: CC(=O)[O-].[Na+] [Formulation F14, sodium acetate]
- growth of T. rubrum (F14 0.004X alone): P 0.004X
- growth of T. rubrum (F14 0.007X alone): P 0.007X
- growth of T. rubrum (F14 0.015X alone): P 0.015X
- growth of T. rubrum (F14 0.03X alone): P 0.03X
- growth of T. rubrum (F14 0.06X alone): P 0.06X
- growth of T. rubrum (F14 0.125X alone): N 0.125X
- growth of T. rubrum (F14 0.25X alone): N 0.25X
- concentration at which negative growth was shown, individually: 0.125 times the initial concentration

SMILES: O=C([O-])c1ccccc1.[Na+] [Formulation F11, sodium benzoate]
- growth of T. rubrum (F11 0.004X alone): P 0.004X
- growth of T. rubrum (F11 0.007X alone): P 0.007X
- growth of T. rubrum (F11 0.015X alone): P 0.015X
- growth of T. rubrum (F11 0.03X alone): N 0.03X
- growth of T. rubrum (F11 0.06X alone): N 0.06X
- growth of T. rubrum (F11 0.125X alone): N 0.125X
- growth of T. rubrum (F11 0.25X alone): N 0.25X
- concentration at which negative growth was shown, individually: 0.03 times the initial concentration
